Laboratory results taken from patent publication US20100119599A1 (ARCHER PHARMACEUTICALS, INC., priority 2006, published 2010).

How the values were obtained:
Aβ1-40 = experiment: Measurement of Aβ1-40 in culture medium of 7W WT APP751 CHO cells by ELISA; format: cell-based, Chinese hamster; conditions: for activity at 5 µM: Cricetulus griseus, Table 1, 5 μM test compound, CHO cells stably transfected with human APP751, culture medium, ELISA, control DMSO, 0 = no detectable amount; for Aβ1-40 (% of control): CHO cells that overexpress APP751, zero = below the detection limit of the assay
Aβ1-42 = experiment: Measurement of Aβ1-42 in culture medium of 7W WT APP751 CHO cells by ELISA; format: cell-based, Chinese hamster; conditions: for activity at 5 µM: Cricetulus griseus, Table 1, 5 μM test compound, CHO cells stably transfected with human APP751, culture medium, ELISA, control DMSO, 0 = no detectable amount, read-out: Aβ1-42 (% of control); for Aβ1-42 (% of control): CHO cells that overexpress APP751, zero = below the detection limit of the assay
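Note: 5 µM test compound but RI-coded compounds at 10 µM for 24 hours.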

CCc1ccc(C2C(C(=O)OC(C)C)=C(C)NC3=C2C(=O)CCC3)cc1 (centres unmarked) [ST013191, methylethyl 4-(4-ethylphenyl)-2-methyl-5-oxo-1,4,6,7,8-pentahydroquinoline-3-carboxylate]
activity at 5 µM (Aβ1-40): 33.4% | activity at 5 µM (Aβ1-42): 98%

CC1=C(C(=O)Nc2ccc(Cl)cc2)C(c2ccccc2)C(C#N)=C(SCC(=O)Nc2ccccc2)N1 (centres unmarked) [RI_42]
Aβ1-40 (% of control) (Aβ1-40): 27.2 % of control | Aβ1-42 (% of control) (Aβ1-42): 36.2 % of control

N#CC1=C(N)N(c2c(F)cccc2F)C2=C(C(=O)CCC2)C1c1ccsc1 (centres unmarked) [ST051960, 2-amino-1-(2,6-difluorophenyl)-5-oxo-4-(3-thienyl)-1,4,6,7,8-pentahydroquinoline-3-carbonitrile]
activity at 5 µM (Aβ1-40): 48.8% | activity at 5 µM (Aβ1-42): 86.3%

COCCOC(=O)C1=C(C)NC2=C(C(=O)CCC2)C1c1ccccc1OC (centres unmarked) [ST013365, 2-methoxyethyl 4-(2-methoxyphenyl)-2-methyl-5-oxo-1,4,6,7,8-pentahydroquinoline-3-carboxylate]
activity at 5 µM (Aβ1-40): 84.5% | activity at 5 µM (Aβ1-42): 56%

CC1=C(C(=O)Nc2ccccc2)C(c2c(Cl)cccc2Cl)C(C(=O)Nc2ccccc2)=C(C)N1 [ST217080, [4-(2,6-dichlorophenyl)-2,6-dimethyl-5-(N-phenylcarbamoyl)(3-1,4-dihydropyridyl)]-N-benzamide]
Aβ1-40 (% of control) (Aβ1-40): 65.54 % of control | Aβ1-42 (% of control) (Aβ1-42): 0 % of control

CC1=C(C(=O)OCC2CCCO2)C(c2cccc(Cl)c2)C2=C(CC(C)(C)CC2=O)N1 (centres unmarked) [ST017242, oxolan-2-ylmethyl 4-(3-chlorophenyl)-2,7,7-trimethyl-5-oxo-1,4,6,7,8-pentahydroquinoline-3-carboxylate]
activity at 5 µM (Aβ1-40): 49.6% | activity at 5 µM (Aβ1-42): 0%

CC1=C(C(=O)OCCc2ccccc2)C(c2ccc(C)s2)C2=C(CC(C)(C)CC2=O)N1 (centres unmarked) [ST052344, 2-phenylethyl 2,7,7-trimethyl-4-(5-methyl(2-thienyl))-5-oxo-1,4,6,7,8-pentahydroquinoline-3-carboxylate]
activity at 5 µM (Aβ1-40): 24.1% | activity at 5 µM (Aβ1-42): 24.4%

CC1=C(C(=O)OCc2ccccc2)C(c2cc3c(cc2[NH+]([O-])O)OCO3)C2=C(CC(C)(C)CC2=O)N1 (centres unmarked) [ST013052, phenylmethyl 2,7,7-trimethyl-4-(6-nitro(2H-benzo[d]1,3-dioxolan-5-yl))-5-oxo-1,4,6,7,8-pentahydroquinoline-3-carboxylate]
activity at 5 µM (Aβ1-40): 68.8% | activity at 5 µM (Aβ1-42): 72.4%

COC(=O)C1=C(C)N(C)C(C)=C(C(=O)OC)C1c1ccccn1 [ST024568, methyl 5-(methoxycarbonyl)-1,2,6-trimethyl-4-(2-pyridyl)-1,4-dihydropyridine-3-carboxylate]
Aβ1-40 (% of control) (Aβ1-40): 67.61 % of control | Aβ1-42 (% of control) (Aβ1-42): 70.13 % of control

CCOC(=O)C1=C(C)NC2=C(C(=O)CCC2)C1c1ccc(C(=O)OC)cc1 (centres unmarked) [ST013173, methyl 4-[3-(ethoxycarbonyl)-2-methyl-5-oxo-4-1,4,6,7,8-pentahydroquinolyl]benzoate]
activity at 5 µM (Aβ1-40): 39.2% | activity at 5 µM (Aβ1-42): 78.1%

COC(=O)C1=C(C)NC2=C(C(=O)CCC2)C1c1cccc(OC)c1OC (centres unmarked) [ST013140, methyl 4-(2,3-dimethoxyphenyl)-2-methyl-5-oxo-1,4,6,7,8-pentahydroquinoline-3-carboxylate]
activity at 5 µM (Aβ1-40): 96% | activity at 5 µM (Aβ1-42): 51.1%

CCN(CC)c1ccc(C2C(C(=O)OC(C)C)=C(C)NC3=C2C(=O)CC(c2ccccc2)C3)cc1 (centres unmarked) [ST014875, methylethyl 4-[4-(diethylamino)phenyl]-2-methyl-5-oxo-7-phenyl-1,4,6,7,8-pentahydroquinoline-3-carboxylate]
activity at 5 µM (Aβ1-40): 54.2% | activity at 5 µM (Aβ1-42): 95.7%

COC(=O)C1=C(C)NC2=C(C(=O)CC(c3ccc(Cl)cc3)C2)C1c1ccc(OCc2ccccc2)cc1 (centres unmarked) [ST016953, methyl 7-(4-chlorophenyl)-2-methyl-5-oxo-4-[4-(phenylmethoxy)phenyl]-1,4,6,7,8-pentahydroquinoline-3-carboxylate]
activity at 5 µM (Aβ1-40): 43.9% | activity at 5 µM (Aβ1-42): 69.7%

COC(=O)C1=CN(Cc2ccc(F)cc2)C=C(C(=O)OC)C1c1ccc(OC)cc1OC [ST038081, methyl 4-(2,4-dimethoxyphenyl)-1-[(4-fluorophenyl)methyl]-5-(methoxycarbonyl)-1,4-dihydropyridine-3-carboxylate]
Aβ1-40 (% of control) (Aβ1-40): 36.22 % of control | Aβ1-42 (% of control) (Aβ1-42): 92.93 % of control

CCCOC(=O)C1=C(C)NC2=C(C(=O)CCC2)C1c1ccccc1OC(C)C (centres unmarked) [ST013322, propyl 2-methyl-4-[2-(methylethoxy)phenyl]-5-oxo-1,4,6,7,8-pentahydroquinoline-3-carboxylate]
activity at 5 µM (Aβ1-40): 57.6% | activity at 5 µM (Aβ1-42): 99.7%

CC1=C(C(=O)OCC(C)C)C(c2cccc3ccccc23)C2=C(CCCC2=O)N1 (centres unmarked) [ST052365, 2-methylpropyl 2-methyl-4-naphthyl-5-oxo-1,4,6,7,8-pentahydroquinoline-3-carboxylate]
activity at 5 µM (Aβ1-40): 59.1% | activity at 5 µM (Aβ1-42): 72.8%

CCOC(=O)C1=C(C)NC2=C(C(=O)CCC2)C1c1cccc(O)c1 (centres unmarked) [ST013148, ethyl 4-(3-hydroxyphenyl)-2-methyl-5-oxo-1,4,6,7,8-pentahydroquinoline-3-carboxylate]
activity at 5 µM (Aβ1-40): 66.1% | activity at 5 µM (Aβ1-42): 49.9%

COc1ccc(C2C(C(=O)OC(C)C)=C(C)NC3=C2C(=O)CC(C)(C)C3)cc1Br (centres unmarked) [ST215449, methylethyl 4-(3-bromo-4-methoxyphenyl)-2,7,7-trimethyl-5-oxo-1,4,6,7,8-pentahydroquinoline-3-carboxylate]
activity at 5 µM (Aβ1-40): 24.5% | activity at 5 µM (Aβ1-42): 25.7%

C=CCOC(=O)C1=C(C)NC2=C(C(=O)CCC2)C1c1ccc(OCCC)c(OC)c1 (centres unmarked) [ST013183, prop-2-enyl 4-(3-methoxy-4-propoxyphenyl)-2-methyl-5-oxo-1,4,6,7,8-pentahydroquinoline-3-carboxylate]
activity at 5 µM (Aβ1-40): 78.7% | activity at 5 µM (Aβ1-42): 66.3%

CC1=C(C(=O)Nc2ccccc2)C(c2ccsc2)C(C#N)=C(SCC(=O)Nc2cccc(C)c2)N1 (centres unmarked) [RI_39]
Aβ1-40 (% of control) (Aβ1-40): 72 % of control | Aβ1-42 (% of control) (Aβ1-42): 72 % of control

COc1ccc(COC(=O)C2=C(C)NC3=C(C(=O)CC(C)(C)C3)C2c2cc3c(cc2[NH+]([O-])O)OCO3)cc1 (centres unmarked) [ST017054, (4-methoxyphenyl)methyl 2,7,7-trimethyl-4-(6-nitro(2H-benzo[d]1,3-dioxolan-5-yl))-5-oxo-1,4,6,7,8-pentahydroquinoline-3-carboxylate]
activity at 5 µM (Aβ1-40): 46.5% | activity at 5 µM (Aβ1-42): 9.54%

CC1=C(C(=O)OC2CCCCC2)C(c2ccc3c(c2)OCO3)C2=C(CC(C)(C)CC2=O)N1 (centres unmarked) [ST216920, cyclohexyl 4-(2H-benzo[3,4-d]1,3-dioxolen-5-yl)-2,7,7-trimethyl-5-oxo-1,4,6,7,8-pentahydroquinoline-3-carboxylate]
activity at 5 µM (Aβ1-40): 1.4% | activity at 5 µM (Aβ1-42): 3.82%

CC1=C(C(=O)OCC(C)C)C(c2ccccc2F)C2=C(CC(c3cccs3)CC2=O)N1 (centres unmarked) [ST051566, 2-methylpropyl 4-(2-fluorophenyl)-2-methyl-5-oxo-7-(2-thienyl)-1,4,6,7,8-pentahydroquinoline-3-carboxylate]
activity at 5 µM (Aβ1-40): 63.4% | activity at 5 µM (Aβ1-42): 96.1%

COC(=O)C1=C(C)NC2=C(C(=O)CCC2)C1c1cc(Br)c(O)c(OC)c1 (centres unmarked) [ST013141, methyl 4-(3-bromo-4-hydroxy-5-methoxyphenyl)-2-methyl-5-oxo-1,4,6,7,8-pentahydroquinoline-3-carboxylate]
activity at 5 µM (Aβ1-40): 89.7% | activity at 5 µM (Aβ1-42): 23.7%

CC1=C(C(=O)OCCc2ccccc2)C(c2ccccc2Cl)C2=C(CC(C)(C)CC2=O)N1 (centres unmarked) [ST015085, 2-phenylethyl 4-(2-chlorophenyl)-2,7,7-trimethyl-5-oxo-1,4,6,7,8-pentahydroquinoline-3-carboxylate]
activity at 5 µM (Aβ1-40): 69.9% | activity at 5 µM (Aβ1-42): 72.9%

C=CCOC(=O)C1=C(C)NC2=C(C(=O)CCC2)C1c1cccc(OC)c1 (centres unmarked) [ST013199, prop-2-enyl 4-(3-methoxyphenyl)-2-methyl-5-oxo-1,4,6,7,8-pentahydroquinoline-3-carboxylate]
activity at 5 µM (Aβ1-40): 68.5% | activity at 5 µM (Aβ1-42): 86.7%

CCCCCOC(=O)C1=C(C)NC2=C(C(=O)CCC2)C1c1cccc(Cl)c1 (centres unmarked) [ST013152, pentyl 4-(3-chlorophenyl)-2-methyl-5-oxo-1,4,6,7,8-pentahydroquinoline-3-carboxylate]
activity at 5 µM (Aβ1-40): 22% | activity at 5 µM (Aβ1-42): 33.2%

COC(=O)C1=C(C)NC2=C(C(=O)CC(c3ccc(Cl)cc3)C2)C1c1ccccc1F (centres unmarked) [ST015216, methyl 7-(4-chlorophenyl)-4-(2-fluorophenyl)-2-methyl-5-oxo-1,4,6,7,8-pentahydroquinoline-3-carboxylate]
activity at 5 µM (Aβ1-40): 68.4% | activity at 5 µM (Aβ1-42): 93.2%

CCOC(=O)C1=C(C)NC(C)=C(C(=O)OCC)C1c1c(Cl)cccc1Cl [ST211423, ethyl 4-(2,6-dichlorophenyl)-5-(ethoxycarbonyl)-2,6-dimethyl-1,4-dihydropyridine-3-carboxylate]
Aβ1-40 (% of control) (Aβ1-40): 2.731 % of control | Aβ1-42 (% of control) (Aβ1-42): 0 % of control

COc1ccc(/C=c2\sc3n(c2=O)C(N)=C(C#N)C(c2ccc(OC)cc2OC)C=3C#N)c(OC)c1 (centres unmarked) [ST025017, 5-amino-7-(2,4-dimethoxyphenyl)-2-[(2,4-dimethoxyphenyl)methylene]-3-oxo-4,7-dihydro-1,3-thiazolidino[3,2-a]pyridine-6,8-dicarbonitrile]
Aβ1-40 (% of control) (Aβ1-40): 64.54 % of control | Aβ1-42 (% of control) (Aβ1-42): 72.39 % of control

CCOC(=O)C1=c2s/c(=C/c3ccccc3C(F)(F)F)c(=O)n2C(N)=C(C#N)C1c1ccccc1C(F)(F)F (centres unmarked) [ST025089, ethyl 5-amino-6-cyano-3-oxo-7-[2-(trifluoromethyl)phenyl]-2-{[2-(trifluoromethyl)phenyl]methylene}-4,7-dihydro-1,3-thiazolidino[3,2-a]pyridine-8-carboxylate]
Aβ1-40 (% of control) (Aβ1-40): 48.71 % of control | Aβ1-42 (% of control) (Aβ1-42): 33.69 % of control
